The values that follow come from patent US4356183A, “Antihypertensive 4-thiazolidinecarboxylic acids (pyridyl derivatives)” (Santen Pharmaceutical Co., Ltd., priority 1978, dated 1982).

The test system of the test is contractile response of isolated guinea pig ileum to angiotensin I. Kind of test: Inhibition of contractile response of isolated guinea pig ileum to angiotensin I. In kind it is cell-based. Particulars: Cavia porcellus, angiotensin I 0.1 μg/ml; compound added 5 min before; 30° C.; read-out: Angiotensin I IC50 (50% inhibition of angiotensin I activity inducing the contraction of guinea pig ileum).

Turning to `C[C@H](CS)C(=O)N1C(c2ccccc2O)SC[C@H]1C(=O)O` (some centres unmarked) [Compound 50], the IC50 (commonly the midpoint of a concentration-inhibition curve) is 56 nM.

For `COc1ccc(C2SC[C@@H](C(=O)O)N2C(=O)[C@H](C)CS)c(O)c1` (some centres unmarked) [Compound 77], the IC50 worked out at 120 nM.
